# Legend:
# Experiment in all cases: Histone peptide microarray
# Format in all cases: binding, human
# Conditions in all cases: sheet "Array Heatmap"
# DPF2 (PPC2W2) = system: DPF2 (PPC2W2)
# Text: (§1) To more comprehensively define the histone interactions of the 31 PHD readers identified from the domain microarray analyses, we probed each on an alternate microarray platform containing a library of 293 synthetic histone peptides with single or combinatorial PTMs (Additional file 2: Figure S4 and Additional file 3: Table S2).
# (§2) The 31 GST-tagged PHD readers identified in the PHD finger domain array were expressed and purified as previously. Histone peptide arrays and peptide pulldown assays were conducted as recently described (specifically, the optimized protocol from Petell et al. for the former).
# (§3) Supplementary file 13072_2020_328_MOESM3_ESM.xlsx: Additional file 3: Table S2. […] Excel Tab Peptide List is a compiled list of the entire 293 histone peptide library with amino acid sequence ranges. […] Each number corresponds to the peptide number designated in Peptide List. Excel Tab Average Signals is a compiled set of binding data: chromatin reader at 0.5 μM vs. entire 293 peptide library. Data is presented as the average and standard deviation of 4 replicates. The average signals are colored to indicate signal intensity with green being strong and white being weak/low. […] Key: red= stronger relative binding; blue = weaker relative binding. Excel Tab Array info summary is a table summarizing the domains, sequence coverage, array signal range, and noise for each of the GST-tagged readers assayed on the peptide microarrays.
# PHF23 = system: PHF23
# Text: as §1, §2, §3
# MLL5 = system: MLL5
# Text: as §1, §2, §3
# KDM5A (1) = system: KDM5A (1)
# Text: as §1, §2, §3
# ING4 = system: ING4
# Text: as §1, §2, §3
# PHF13 = system: PHF13
# Text: as §1, §2, §3
# RAG2 = system: RAG2
# Text: as §1, §2, §3
# PHF8 = system: PHF8
# Text: as §1, §2, §3
# ING1 = system: ING1
# Text: as §1, §2, §3
# ING3 = system: ING3
# Text: as §1, §2, §3
# PHF21A = system: PHF21A
# Text: as §1, §2, §3
# KDM5B (3) = system: KDM5B (3)
# Text: as §1, §2, §3
# PHF2 = system: PHF2
# Text: as §1, §2, §3
# ING2 = system: ING2
# Text: as §1, §2, §3
# KDM5A (3) = system: KDM5A (3)
# Text: as §1, §2, §3
# KDM4C (TTP) = system: KDM4C (TTP)
# Text: as §1, §2, §3
# TAF3 = system: TAF3
# Text: as §1, §2, §3
# MORC3 (CW) = system: MORC3 (CW)
# Text: as §1, §2, §3
# PHRF1 (RP) = system: PHRF1 (RP)
# Text: as §1, §2, §3
# KDM7A = system: KDM7A
# Text: as §1, §2, §3
# TRIM66 (PB) = system: TRIM66 (PB)
# Text: as §1, §2, §3
# SP140L = system: SP140L
# Text: as §1, §2, §3
# BAZ2B = system: BAZ2B
# Text: as §1, §2, §3
# AIRE (PP) = system: AIRE (PP)
# Text: as §1, §2, §3
# BPTF (PB) = system: BPTF (PB)
# Text: as §1, §2, §3
# ING5 = system: ING5
# Text: as §1, §2, §3
# CHD4 (PPCC) = system: CHD4 (PPCC)
# Text: as §1, §2, §3
# CHD5 (PPCC) = system: CHD5 (PPCC)
# Text: as §1, §2, §3
# CHD5 (PCC) = system: CHD5 (PCC)
# Text: as §1, §2, §3
# KDM5B (1) = system: KDM5B (1)
# Text: as §1, §2, §3
# DIDO1 = system: DIDO1
# Text: as §1, §2, §3
substance,measurement,setting,value
"H2A (1-17): H2A 1-17 (SGRGKQGGKARAKAKTR; UniProt P0C0S8 2-18, looked up, fragment)","Array Heatmap signal, DPF2 (PPC2W2)","DPF2 (PPC2W2); GST-tagged DPF2 (PPC2W2), arrays performed twice, total replicate number n = 4",0.6154
same,"Array Heatmap signal, PHF23","PHF23; GST-tagged PHF23, arrays performed twice, total replicate number n = 4",0.4782
same,"Array Heatmap signal, MLL5","MLL5; GST-tagged MLL5, arrays performed twice, total replicate number n = 4",0.5078
same,"Array Heatmap signal, KDM5A (1)","KDM5A (1); GST-tagged KDM5A (1), arrays performed twice, total replicate number n = 4",0.4209
same,"Array Heatmap signal, ING4","ING4; GST-tagged ING4, arrays performed twice, total replicate number n = 4",0.3938
same,"Array Heatmap signal, PHF13","PHF13; GST-tagged PHF13, arrays performed twice, total replicate number n = 4",0.527
same,"Array Heatmap signal, RAG2","RAG2; GST-tagged RAG2, arrays performed twice, total replicate number n = 4",0.2183
same,"Array Heatmap signal, PHF8","PHF8; GST-tagged PHF8, arrays performed twice, total replicate number n = 4",0.3118
same,"Array Heatmap signal, ING1","ING1; GST-tagged ING1, arrays performed twice, total replicate number n = 4",0.4879
same,"Array Heatmap signal, ING3","ING3; GST-tagged ING3, arrays performed twice, total replicate number n = 4",0.4033
same,"Array Heatmap signal, PHF21A","PHF21A; GST-tagged PHF21A, arrays performed twice, total replicate number n = 4",0.4214
same,"Array Heatmap signal, KDM5B (3)","KDM5B (3); GST-tagged KDM5B (3), arrays performed twice, total replicate number n = 4",0.4194
same,"Array Heatmap signal, PHF2","PHF2; GST-tagged PHF2, arrays performed twice, total replicate number n = 4",0.4566
same,"Array Heatmap signal, ING2","ING2; GST-tagged ING2, arrays performed twice, total replicate number n = 4",0.6045
same,"Array Heatmap signal, KDM5A (3)","KDM5A (3); GST-tagged KDM5A (3), arrays performed twice, total replicate number n = 4",0.3954
same,"Array Heatmap signal, KDM4C (TTP)","KDM4C (TTP); GST-tagged KDM4C (TTP), arrays performed twice, total replicate number n = 4",0.4226
same,"Array Heatmap signal, TAF3","TAF3; GST-tagged TAF3, arrays performed twice, total replicate number n = 4",0.223
same,"Array Heatmap signal, MORC3 (CW)","MORC3 (CW); GST-tagged MORC3 (CW), arrays performed twice, total replicate number n = 4",0.3444
same,"Array Heatmap signal, PHRF1 (RP)","PHRF1 (RP); GST-tagged PHRF1 (RP), arrays performed twice, total replicate number n = 4",0.4275
same,"Array Heatmap signal, KDM7A","KDM7A; GST-tagged KDM7A, arrays performed twice, total replicate number n = 4",0.3435
same,"Array Heatmap signal, TRIM66 (PB)","TRIM66 (PB); GST-tagged TRIM66 (PB), arrays performed twice, total replicate number n = 4",0.5087
same,"Array Heatmap signal, SP140L","SP140L; GST-tagged SP140L, arrays performed twice, total replicate number n = 4",0.3296
same,"Array Heatmap signal, BAZ2B","BAZ2B; GST-tagged BAZ2B, arrays performed twice, total replicate number n = 4",0.3936
same,"Array Heatmap signal, AIRE (PP)","AIRE (PP); GST-tagged AIRE (PP), arrays performed twice, total replicate number n = 4",0.3792
same,"Array Heatmap signal, BPTF (PB)","BPTF (PB); GST-tagged BPTF (PB), arrays performed twice, total replicate number n = 4",0.2947
same,"Array Heatmap signal, ING5","ING5; GST-tagged ING5, arrays performed twice, total replicate number n = 4",0.2875
same,"Array Heatmap signal, CHD4 (PPCC)","CHD4 (PPCC); GST-tagged CHD4 (PPCC), arrays performed twice, total replicate number n = 4",0.5048
same,"Array Heatmap signal, CHD5 (PPCC)","CHD5 (PPCC); GST-tagged CHD5 (PPCC), arrays performed twice, total replicate number n = 4",0.4702
same,"Array Heatmap signal, CHD5 (PCC)","CHD5 (PCC); GST-tagged CHD5 (PCC), arrays performed twice, total replicate number n = 4",0.7396
same,"Array Heatmap signal, KDM5B (1)","KDM5B (1); GST-tagged KDM5B (1), arrays performed twice, total replicate number n = 4",0.663
same,"Array Heatmap signal, DIDO1","DIDO1; GST-tagged DIDO1, arrays performed twice, total replicate number n = 4",0.6067
"H2A (10-25): H2A 10-25 (ARAKAKTRSSRAGLQF; UniProt P0C0S8 11-26, looked up, fragment)",Array Heatmap value (peptide array signal),"DPF2 (PPC2W2); DPF2 (PPC2W2), each array performed twice, total n = 4",0.6893
same,Array Heatmap value (peptide array signal),"PHF23; PHF23, each array performed twice, total n = 4",0.5294
same,Array Heatmap value (peptide array signal),"MLL5; MLL5, each array performed twice, total n = 4",0.5534
same,Array Heatmap value (peptide array signal),"KDM5A (1); KDM5A (1), each array performed twice, total n = 4",0.4831
same,Array Heatmap value (peptide array signal),"ING4; ING4, each array performed twice, total n = 4",0.4661
same,Array Heatmap value (peptide array signal),"PHF13; PHF13, each array performed twice, total n = 4",0.6145
same,Array Heatmap value (peptide array signal),"RAG2; RAG2, each array performed twice, total n = 4",0.2471
same,Array Heatmap value (peptide array signal),"PHF8; PHF8, each array performed twice, total n = 4",0.3624
same,Array Heatmap value (peptide array signal),"ING1; ING1, each array performed twice, total n = 4",0.5431
same,Array Heatmap value (peptide array signal),"ING3; ING3, each array performed twice, total n = 4",0.4796
same,Array Heatmap value (peptide array signal),"PHF21A; PHF21A, each array performed twice, total n = 4",0.4834
same,Array Heatmap value (peptide array signal),"KDM5B (3); KDM5B (3), each array performed twice, total n = 4",0.4449
same,Array Heatmap value (peptide array signal),"PHF2; PHF2, each array performed twice, total n = 4",0.4378
same,Array Heatmap value (peptide array signal),"ING2; ING2, each array performed twice, total n = 4",0.647
same,Array Heatmap value (peptide array signal),"KDM5A (3); KDM5A (3), each array performed twice, total n = 4",0.4414
same,Array Heatmap value (peptide array signal),"KDM4C (TTP); KDM4C (TTP), each array performed twice, total n = 4",0.5121
same,Array Heatmap value (peptide array signal),"TAF3; TAF3, each array performed twice, total n = 4",0.2598
same,Array Heatmap value (peptide array signal),"MORC3 (CW); MORC3 (CW), each array performed twice, total n = 4",0.3714
same,Array Heatmap value (peptide array signal),"PHRF1 (RP); PHRF1 (RP), each array performed twice, total n = 4",0.4431
same,Array Heatmap value (peptide array signal),"KDM7A; KDM7A, each array performed twice, total n = 4",0.3832
same,Array Heatmap value (peptide array signal),"TRIM66 (PB); TRIM66 (PB), each array performed twice, total n = 4",0.5591
same,Array Heatmap value (peptide array signal),"SP140L; SP140L, each array performed twice, total n = 4",0.3704
same,Array Heatmap value (peptide array signal),"BAZ2B; BAZ2B, each array performed twice, total n = 4",0.4876
same,Array Heatmap value (peptide array signal),"AIRE (PP); AIRE (PP), each array performed twice, total n = 4",0.4997
same,Array Heatmap value (peptide array signal),"BPTF (PB); BPTF (PB), each array performed twice, total n = 4",0.3546
same,Array Heatmap value (peptide array signal),"ING5; ING5, each array performed twice, total n = 4",0.3701
same,Array Heatmap value (peptide array signal),"CHD4 (PPCC); CHD4 (PPCC), each array performed twice, total n = 4",0.556
same,Array Heatmap value (peptide array signal),"CHD5 (PPCC); CHD5 (PPCC), each array performed twice, total n = 4",0.5571
same,Array Heatmap value (peptide array signal),"CHD5 (PCC); CHD5 (PCC), each array performed twice, total n = 4",0.8105
same,Array Heatmap value (peptide array signal),"KDM5B (1); KDM5B (1), each array performed twice, total n = 4",0.668
same,Array Heatmap value (peptide array signal),"DIDO1; DIDO1, each array performed twice, total n = 4",0.6569

# — PMC6979384, “Characterization of the plant homeodomain (PHD) reader family for their histone tail interactions” (Epigenetics & Chromatin, 2020)
